Assay results published in the supplement of paper PMC4862054.

Experiments:
HCC1143 [1] = test: normalised viability (% of control), CellTiter-Blue; higher = more viable cells (about 100 = DMSO control); details: incubation time: 72 h
Outline: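 Each entry is normalised viability at a single listed concentration within a series. It comes from breast cancer cell lines incubated 72 h with compound in 384-well plates, then measured with CellTiter-Blue fluorescence at 560/590 nm. Every plate was normalised between vehicle (100) and a positive kill control (0).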

MDA-MB-436 [2] = details: 72 h
Outline: (§1)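 Plates of 384 wells holding compound in 5 µl medium received breast cancer cell lines in 20 µl suspension and were incubated 72 h. CellTiter-Blue (2.5 µl, 2 h, 37 °C) was used for viability, read at 560/590 nm, and every plate was normalised to vehicle and a positive kill control and assessed by Z'-factor. The EC50 derives from a percent-inhibition dose-response curve fit censored at the highest concentration, leaving out rows whose drug sensitivity score was zero.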

HCC1143 [3] = details: 72 h
Outline: as §1

HCC1599 [4] = details: 72 h
Outline: as §1

BT-549 [5] = details: 72 h
Outline: as §1

CAL-120 [6] = details: 72 h
Outline: as §1

MFM-223 [7] = details: 72 h
Outline: as §1

HCC1937 = test: normalised viability (% of control), CellTiter-Blue; higher = more viable cells (100 = DMSO, 0 = benzethonium chloride kill control); details: incubation time: 72 h
Method: (§2)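 DSRT, CellTiter-Blue viability, 72 h incubation. Signal is normalised to DMSO and benzethonium chloride controls. Value is the normalised response at dose 1.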

MDA-MB-436 [8] = test: as above; details: incubation time: 72 h
Method: as §2

HDQ-P1 [9] = test: as above; details: incubation time: 72 h
Method: as §2

BT-474 = test: as above; details: incubation time: 72 h
Method: as §2

MDA-MB-453 [10] = test: as above; details: incubation time: 72 h
Method: as §2

CAL-148 [11] = test: as above; details: incubation time: 72 h
Method: as §2

CAL-51 [12] = test: as above; details: incubation time: 72 h
Method: as §2

Hs578T = test: as above; details: incubation time: 72 h
Method: as §2

MDA-MB-231 = test: as above; details: incubation time: 72 h
Method: as §2

DU-4475 [13] = test: as above; details: incubation time: 72 h
Method: as §2

HCC1143 [14] = test: as above; details: incubation time: 72 h
Method: as §2

MDA-MB-468 = test: as above; details: incubation time: 72 h
Method: as §2

CAL-85-1 [15] = test: as above; details: incubation time: 72 h
Method: as §2

SK-BR-3 = test: as above; details: incubation time: 72 h
Method: as §2

HCC1599 [16] = test: as above; details: incubation time: 72 h
Method: as §2

BT-549 [17] = test: as above; details: incubation time: 72 h
Method: as §2

CAL-120 [18] = test: as above; details: incubation time: 72 h
Method: as §2

MFM-223 [19] = test: as above; details: incubation time: 72 h
Method: as §2

HDQ-P1 [20] = details: 72 h
Outline: as §1

MDA-MB-453 [21] = details: 72 h
Outline: as §1

CAL-148 [22] = details: 72 h
Outline: as §1

CAL-51 [23] = details: 72 h
Outline: as §1

DU-4475 [24] = details: 72 h
Outline: as §1

CAL-85-1 [25] = details: 72 h
Outline: as §1

CAL-85-1 [26] = details: 72 h; remark: listed apart in the source
Method: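 Drug sensitivity and resistance testing (DSRT) of breast cancer cell lines in 384-well plates, 5 concentrations in 10-fold dilutions over a compound-specific 10,000-fold range. After 72 h, cytotoxicity was read by CellTox Green fluorescence and viability by CellTiter-Glo luminescence (multiplexed), normalised to DMSO and benzethonium chloride controls. EC50 is the inflection point of the fitted dose-response curve (bottom asymptote free, so it can be relative for partial curves) and is censored at the highest tested concentration. Rows with DSS 0 (no meaningful response) were excluded.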

| Structure (SMILES) | normalised viability (HCC1143 [1]; 10 nM) | EC50, CellTiter-Blue viability (MDA-MB-436 [2]) | EC50, CellTiter-Blue viability (HCC1143 [3]) | EC50, CellTiter-Blue viability (HCC1599 [4]) | EC50, CellTiter-Blue viability (BT-549 [5]) | EC50, CellTiter-Blue viability (CAL-120 [6]) | EC50, CellTiter-Blue viability (MFM-223 [7]) | normalised viability (HCC1937; 0.1 nM) | normalised viability (MDA-MB-436 [8]; 0.1 nM) | normalised viability (HDQ-P1 [9]; 0.1 nM) | normalised viability (BT-474; 0.1 nM) | normalised viability (MDA-MB-453 [10]; 0.1 nM) | normalised viability (CAL-148 [11]; 0.1 nM) | normalised viability (CAL-51 [12]; 0.1 nM) | EC50, CellTiter-Blue viability (HDQ-P1 [20]) | EC50, CellTiter-Blue viability (MDA-MB-453 [21]) | EC50, CellTiter-Blue viability (CAL-148 [22]) | EC50, CellTiter-Blue viability (CAL-51 [23]) | EC50, CellTiter-Blue viability (DU-4475 [24]) | EC50, CellTiter-Blue viability (CAL-85-1 [25]) | other results |
| --- | --- | --- | --- | --- | --- | --- | --- | --- | --- | --- | --- | --- | --- | --- | --- | --- | --- | --- | --- | --- | --- |
| O=C1c2c(O)ccc(O)c2C(=O)c2c(NCCNCCO)ccc(NCCNCCO)c21 [Mitoxantrone] | 66.9% | 684 nM | 11.8 nM | 52.1 nM | 350 nM | 15.9 nM | 522 nM | 92.5% | 121% | 101% | 75.9% | 90.6% | 108% | 109% | 58.6 nM | 539 nM | 26.2 nM | 10.7 nM | 8.91 nM | 182 nM | normalised viability (Hs578T; 0.1 nM): 93.6%; normalised viability (MDA-MB-231; 0.1 nM): 87.4%; normalised viability (DU-4475 [13]; 0.1 nM): 102%; normalised viability (HCC1143 [14]; 0.1 nM): 79.2%; normalised viability (MDA-MB-468; 0.1 nM): 90.7%; normalised viability (CAL-85-1 [15]; 0.1 nM): 80.5%; normalised viability (SK-BR-3; 0.1 nM): 108%; normalised viability (HCC1599 [16]; 0.1 nM): 92.1%; normalised viability (BT-549 [17]; 0.1 nM): 90.5%; normalised viability (CAL-120 [18]; 0.1 nM): 74.6%; normalised viability (MFM-223 [19]; 0.1 nM): 84.2% |
| COc1cc(CCc2cc(NC(=O)c3ccc(N4CC(C)NC(C)C4)cc3)n[nH]2)cc(OC)c1 (centres undefined) [AZD4547] | 86.9% | – | – | 270 nM | – | – | 46.6 nM | 105% | 94.4% | 139% | 112% | 105% | 113% | 117% | – | 310 nM | 632 nM | 548 nM | 536 nM | 529 nM | normalised viability (Hs578T; 0.1 nM): 108%; normalised viability (MDA-MB-231; 0.1 nM): 100%; normalised viability (DU-4475 [13]; 0.1 nM): 95.7%; normalised viability (HCC1143 [14]; 0.1 nM): 96%; normalised viability (MDA-MB-468; 0.1 nM): 125%; normalised viability (CAL-85-1 [15]; 0.1 nM): 89.7%; normalised viability (SK-BR-3; 0.1 nM): 102%; normalised viability (HCC1599 [16]; 0.1 nM): 115%; normalised viability (BT-549 [17]; 0.1 nM): 111%; normalised viability (CAL-120 [18]; 0.1 nM): 93.6%; normalised viability (MFM-223 [19]; 0.1 nM): 91.8% |
| Cn1cc(CNCC2CCN(c3ncc(C(=O)NO)cn3)CC2)c2ccccc21 | 64.8% | 279 nM | 18.6 nM | 21.9 nM | 146 nM | 13.3 nM | 33.1 nM | 106% | 87.9% | 83.6% | 98.1% | 98.8% | 103% | 105% | 18.2 nM | 4.36 nM | 11.9 nM | 62.1 nM | 14.3 nM | 17.2 nM | normalised viability (Hs578T; 0.1 nM): 120%; normalised viability (MDA-MB-231; 0.1 nM): 95.6%; normalised viability (DU-4475 [13]; 0.1 nM): 97.6%; normalised viability (HCC1143 [14]; 0.1 nM): 95.7%; normalised viability (MDA-MB-468; 0.1 nM): 91.1%; normalised viability (CAL-85-1 [15]; 0.1 nM): 84.9%; normalised viability (SK-BR-3; 0.1 nM): 97.5%; normalised viability (HCC1599 [16]; 0.1 nM): 101%; normalised viability (BT-549 [17]; 0.1 nM): 88.6%; normalised viability (CAL-120 [18]; 0.1 nM): 89.2%; normalised viability (MFM-223 [19]; 0.1 nM): 89.5% |
| O=C(NC[C@H](O)CO)c1ccncc1Nc1ccc(I)cc1F | – | – | 7.91 nM | 756 nM | – | 421 nM | – | – | – | – | – | – | – | – | 161 nM | 4980 nM | 9.85 nM | 663 nM | 11.7 nM | 1660 nM | normalised viability (HCC1143 [1]; 100 nM): 66%; normalised viability (HCC1937; 1 nM): 87.6%; normalised viability (MDA-MB-436 [8]; 1 nM): 124%; normalised viability (HDQ-P1 [9]; 1 nM): 103%; normalised viability (BT-474; 1 nM): 96.8%; normalised viability (MDA-MB-453 [10]; 1 nM): 87.9%; normalised viability (CAL-148 [11]; 1 nM): 92.3%; normalised viability (CAL-51 [12]; 1 nM): 99.6%; normalised viability (Hs578T; 1 nM): 111%; normalised viability (MDA-MB-231; 1 nM): 92.5%; normalised viability (DU-4475 [13]; 1 nM): 92.6%; normalised viability (HCC1143 [14]; 1 nM): 87.6%; normalised viability (MDA-MB-468; 1 nM): 104%; normalised viability (CAL-85-1 [15]; 1 nM): 92.1%; normalised viability (SK-BR-3; 1 nM): 92.1%; normalised viability (HCC1599 [16]; 1 nM): 108%; normalised viability (BT-549 [17]; 1 nM): 111%; normalised viability (CAL-120 [18]; 1 nM): 81.3%; normalised viability (MFM-223 [19]; 1 nM): 97.9% |
| CC[C@@]1(O)C(=O)OCc2c1cc1n(c2=O)Cc2cc3c(CN(C)C)c(O)ccc3nc2-1 [Topotecan] | 79.7% | 110 nM | 652 nM | 102 nM | 77.1 nM | 79.9 nM | – | 81.5% | 99.9% | 115% | 111% | 110% | 103% | 92.5% | > 1000 nM | 457 nM | 63.7 nM | 362 nM | 118 nM | 613 nM | normalised viability (Hs578T; 0.1 nM): 110%; normalised viability (MDA-MB-231; 0.1 nM): 98.6%; normalised viability (DU-4475 [13]; 0.1 nM): 102%; normalised viability (HCC1143 [14]; 0.1 nM): 98.3%; normalised viability (MDA-MB-468; 0.1 nM): 107%; normalised viability (CAL-85-1 [15]; 0.1 nM): 85.5%; normalised viability (SK-BR-3; 0.1 nM): 92.4%; normalised viability (HCC1599 [16]; 0.1 nM): 90.8%; normalised viability (BT-549 [17]; 0.1 nM): 96.1%; normalised viability (CAL-120 [18]; 0.1 nM): 85.9%; normalised viability (MFM-223 [19]; 0.1 nM): 100%; EC50, CellTox Green (CAL-85-1 [26]): 913 nM |
| Cc1c(CN2CCN(C(=O)[C@H](C)O)CC2)sc2c(N3CCOCC3)nc(-c3cnc(N)nc3)nc12 [GDC-0980] | – | 783 nM | 306 nM | 103 nM | 386 nM | 181 nM | 139 nM | – | – | – | – | – | – | – | 139 nM | 98.9 nM | 306 nM | 198 nM | 734 nM | 347 nM | normalised viability (HCC1143 [1]; 100 nM): 71.5%; normalised viability (HCC1937; 1 nM): 88.1%; normalised viability (MDA-MB-436 [8]; 1 nM): 84.5%; normalised viability (HDQ-P1 [9]; 1 nM): 95.9%; normalised viability (BT-474; 1 nM): 103%; normalised viability (MDA-MB-453 [10]; 1 nM): 96.5%; normalised viability (CAL-148 [11]; 1 nM): 106%; normalised viability (CAL-51 [12]; 1 nM): 101%; normalised viability (Hs578T; 1 nM): 102%; normalised viability (MDA-MB-231; 1 nM): 96.6%; normalised viability (DU-4475 [13]; 1 nM): 104%; normalised viability (HCC1143 [14]; 1 nM): 94.9%; normalised viability (MDA-MB-468; 1 nM): 99.6%; normalised viability (CAL-85-1 [15]; 1 nM): 83.5%; normalised viability (SK-BR-3; 1 nM): 92.2%; normalised viability (HCC1599 [16]; 1 nM): 95.5%; normalised viability (BT-549 [17]; 1 nM): 91.7%; normalised viability (CAL-120 [18]; 1 nM): 96.3%; normalised viability (MFM-223 [19]; 1 nM): 96.8%; EC50, CellTox Green (CAL-85-1 [26]): 3200 nM |
